The melting point is the temperature, or range, at which the solid turns liquid.

Data set [1] concerns human PGHS-2 protein expression. Nature of the data set: Prostoglandin endoperoxide synthase-2 (PGHS-2) assay, protein expression in LPS stimulated human monocytes. It is filed as cell-based. The method, then: The followiong assay describes a method for determining the inhibitory effects of compounds of Formula (I) on human PGHS-2 protein expression in LPS stimulated human monocytes
Human peripheal blood monocytes were isolated from buffy coats by centrifugation through Ficoll and Percoll gradients. Cells were seeded at 2×10^6/well in 24 well plates and allowed to adhere for 1 hour in RPMI supplemented with 1% human AB serum, 20 mM L-glutamine, Penicillin-Streptomycin and 10 mM HEPES. Compounds were added at various concentrations and incubated at 37° C. for 10 minutes. LPS was added at 50 ng/well (to induce enzyme expression) and incubated overnight at 37° C. The supernatant was removed and cells washed once in cold PBS. The cells were lysed in 100 μl of cold lysis buffer(50 mM Tris/HCl pH 7.5, 150 mM NaCl, 1% NP40, 0.5% sodium deoxycholate, 0.1% SDS, 300 ug/ml DNAse, 0.1% TRITON X-100, 1 mM PMSF, 1 mM leupeptin, 1 mM pepstatin). The lysate was centrifuged (10,000× g for 10 min. at 4° C.) to remove debris and the soluble fraction was subjected to SDS PAGE. analysis (12% gel). Protein separated on the gel were transferred onto nitrocellulose membrane by electrophoretic means for 2 hours at 60 volts. The membrane was pretreated for one hour in PBS/0.1% Tween 20 with 5% non-fat dry milk. […]

Regarding `C[C@@H]1C[C@H]2[C@@H]3CCC4=CC(=O)C=C[C@]4(C)[C@@]3(F)[C@@H](O)C[C@]2(C)[C@@]1(O)C(=O)CO` [Dexamethasone], the “inhibition of LPS induced PGHS-2 protein expression” value in data set [1] (rank order potency similar to that for inhibiting cytokine production) was “active”. Turning to `CC(Cc1ccc(O)c(O)c1)C(C)Cc1ccc(O)c(O)c1` (stereo not shown) [NDGA], in data set [1] (up to 10 uM), the “inhibition of LPS induced PGHS-2 protein expression” value is “inactive”.

Consider `Nc1nccc(-c2c(-c3ccc(F)cc3)ncn2C2CCSCC2)n1` [Example 91, 5-(2-Amino-4-pyrimidinyl)-4-(4-fluorophenyl)-1-(tetrahydro-4-thiopyranyl)imidazole], for which the melting point lay in the range of 228 to 230 °C.

`CNc1nccc(-c2c(-c3ccc(F)cc3)ncn2CCC#N)n1` [Example 93, 5-(2-Methylamino-4-pyrimidinyl)-4-(4-fluorophenyl)-1-(2-cyanoethyl)imidazole] came in with a melting point of 193 to 194 °C.

For the origin of these results see patent US20020188122A1, “Novel compounds” (SmithKline Beecham Corporation, priority 1993, published 2002).
